Patent US8415469B2, “Compounds and methods for kinase modulation, and indications therefor” (Plexxikon Inc., priority 2005, dated 2013)

Tests used:
Type in all cases: biochemical
Fms = molecular target: T1, Fms (Homo sapiens, UniProt P07333); assay: AlphaScreen kinase assay, Fms; details: read-out: IC50, activity toward kinase Fms
T1 construct: purchased Upstate Biotechnology

Jnk1 = molecular target: T2, Jnk1 (Homo sapiens, UniProt P45983); assay: AlphaScreen kinase assay, Jnk1; details: read-out: IC50, activity toward kinase Jnk1
T2 construct: purchased Upstate Biotechnology
T2 sequence (P45983 whole entry): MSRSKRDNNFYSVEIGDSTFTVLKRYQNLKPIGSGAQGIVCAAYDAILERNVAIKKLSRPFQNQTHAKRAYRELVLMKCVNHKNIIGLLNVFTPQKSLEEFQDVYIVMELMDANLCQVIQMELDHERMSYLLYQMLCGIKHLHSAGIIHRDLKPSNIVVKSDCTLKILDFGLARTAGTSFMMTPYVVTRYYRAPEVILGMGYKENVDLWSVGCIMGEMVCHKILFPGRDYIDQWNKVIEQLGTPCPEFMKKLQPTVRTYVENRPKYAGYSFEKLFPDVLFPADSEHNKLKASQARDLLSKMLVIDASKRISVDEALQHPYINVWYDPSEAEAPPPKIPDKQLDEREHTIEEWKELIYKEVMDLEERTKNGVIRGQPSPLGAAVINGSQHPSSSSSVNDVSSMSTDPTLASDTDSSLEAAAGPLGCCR

FGFR1 = molecular target: T3, FGFR1 (Homo sapiens, UniProt P11362, C488A/C584S); assay: AlphaScreen kinase assay, FGFR1; details: read-out: IC50, activity toward kinase FGFR
T3 construct: P1351.pET N6 BI-PTP FGFR A458-E765-X C488A, C584S; made in house; host or cells: E. coli (PTP1B co-expressed)
T3 sequence (P11362 458-765 C488A/C584S): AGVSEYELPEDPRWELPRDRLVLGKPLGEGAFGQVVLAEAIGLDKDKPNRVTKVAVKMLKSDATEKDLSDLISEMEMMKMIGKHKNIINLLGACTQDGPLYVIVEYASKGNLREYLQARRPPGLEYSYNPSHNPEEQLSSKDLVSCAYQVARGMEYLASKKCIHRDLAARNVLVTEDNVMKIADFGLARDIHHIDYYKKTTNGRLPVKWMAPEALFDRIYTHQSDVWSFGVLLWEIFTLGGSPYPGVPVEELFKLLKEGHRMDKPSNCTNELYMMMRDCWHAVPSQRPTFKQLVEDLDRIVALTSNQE

c-Raf-1 = molecular target: T4, c-Raf-1 (Homo sapiens, UniProt P04049); assay: AlphaScreen kinase assay, c-Raf-1; details: read-out: IC50, activity toward kinase c-Raf-1
T4 construct: purchased Upstate Biotechnology
T4 sequence (P04049 whole entry): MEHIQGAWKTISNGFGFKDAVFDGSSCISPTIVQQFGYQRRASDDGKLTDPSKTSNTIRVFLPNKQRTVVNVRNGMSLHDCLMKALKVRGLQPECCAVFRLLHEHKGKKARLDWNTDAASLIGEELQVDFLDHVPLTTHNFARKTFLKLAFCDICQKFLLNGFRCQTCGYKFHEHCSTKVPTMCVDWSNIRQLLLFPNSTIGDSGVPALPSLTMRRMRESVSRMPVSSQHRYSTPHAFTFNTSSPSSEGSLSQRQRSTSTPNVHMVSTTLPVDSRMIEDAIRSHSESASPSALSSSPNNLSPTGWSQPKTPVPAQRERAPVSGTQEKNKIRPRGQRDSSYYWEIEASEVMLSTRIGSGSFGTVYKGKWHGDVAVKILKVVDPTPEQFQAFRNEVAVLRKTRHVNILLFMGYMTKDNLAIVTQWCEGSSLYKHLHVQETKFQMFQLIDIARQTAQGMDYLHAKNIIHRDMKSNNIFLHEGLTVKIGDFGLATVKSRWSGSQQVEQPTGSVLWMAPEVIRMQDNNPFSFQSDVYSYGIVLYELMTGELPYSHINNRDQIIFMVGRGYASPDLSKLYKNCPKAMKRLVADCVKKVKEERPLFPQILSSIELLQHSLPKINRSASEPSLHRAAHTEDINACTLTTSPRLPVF

Src = molecular target: T5, Src (Homo sapiens, UniProt P12931); assay: AlphaScreen kinase assay, Src; details: read-out: IC50, activity toward kinase Src
T5 construct: P1144. pET-N6 BI-PTP SRC V86-L536-X; made in house
T5 sequence (P12931 with tags, fused parts or gaps): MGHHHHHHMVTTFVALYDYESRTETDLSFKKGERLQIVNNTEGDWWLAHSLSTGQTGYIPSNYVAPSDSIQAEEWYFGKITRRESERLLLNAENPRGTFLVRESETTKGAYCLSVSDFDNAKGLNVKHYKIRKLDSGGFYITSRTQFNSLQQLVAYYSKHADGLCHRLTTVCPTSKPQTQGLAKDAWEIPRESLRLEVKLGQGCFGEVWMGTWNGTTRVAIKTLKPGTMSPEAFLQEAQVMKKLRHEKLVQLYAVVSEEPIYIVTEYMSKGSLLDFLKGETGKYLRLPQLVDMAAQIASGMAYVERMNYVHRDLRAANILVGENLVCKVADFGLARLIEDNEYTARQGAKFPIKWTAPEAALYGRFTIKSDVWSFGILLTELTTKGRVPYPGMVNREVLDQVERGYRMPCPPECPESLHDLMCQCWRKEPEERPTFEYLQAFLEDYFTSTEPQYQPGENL

B-Raf = molecular target: T6, B-Raf (Homo sapiens, UniProt P15056); assay: AlphaScreen kinase assay, B-Raf; details: read-out: IC50, activity toward kinase B-Raf
T6 construct: purchased Upstate Biotechnology
T6 sequence (P15056 whole entry): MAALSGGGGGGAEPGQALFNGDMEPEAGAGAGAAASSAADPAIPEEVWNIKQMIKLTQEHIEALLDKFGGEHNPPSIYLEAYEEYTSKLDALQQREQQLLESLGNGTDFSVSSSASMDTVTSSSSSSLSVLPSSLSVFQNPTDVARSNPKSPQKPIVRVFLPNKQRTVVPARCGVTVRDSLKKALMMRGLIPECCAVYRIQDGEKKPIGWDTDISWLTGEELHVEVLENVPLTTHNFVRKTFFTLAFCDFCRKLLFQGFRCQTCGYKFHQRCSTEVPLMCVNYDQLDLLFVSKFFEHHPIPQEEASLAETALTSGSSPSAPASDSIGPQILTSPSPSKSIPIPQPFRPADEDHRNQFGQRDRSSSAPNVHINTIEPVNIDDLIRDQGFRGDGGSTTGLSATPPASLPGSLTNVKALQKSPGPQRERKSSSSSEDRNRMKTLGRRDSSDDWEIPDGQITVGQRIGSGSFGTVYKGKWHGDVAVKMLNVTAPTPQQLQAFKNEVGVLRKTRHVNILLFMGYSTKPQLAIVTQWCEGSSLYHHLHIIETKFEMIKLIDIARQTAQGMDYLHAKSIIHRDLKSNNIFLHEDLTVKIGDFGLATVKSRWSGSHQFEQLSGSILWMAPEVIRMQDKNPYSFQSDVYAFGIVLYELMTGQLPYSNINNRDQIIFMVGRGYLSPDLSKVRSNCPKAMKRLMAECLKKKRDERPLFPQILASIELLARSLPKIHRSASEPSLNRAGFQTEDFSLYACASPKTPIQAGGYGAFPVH

Kit = molecular target: T7, Kit (Homo sapiens, UniProt P10721); assay: AlphaScreen kinase assay, Kit; details: read-out: IC50, activity toward kinase Kit
T7 construct: P1332.N6 BI PTP KIT M552-K948-X COD; His6 (N); made in house; host or cells: E. coli (PTP1B co-expressed)
T7 sequence (P10721 with tags, fused parts or gaps): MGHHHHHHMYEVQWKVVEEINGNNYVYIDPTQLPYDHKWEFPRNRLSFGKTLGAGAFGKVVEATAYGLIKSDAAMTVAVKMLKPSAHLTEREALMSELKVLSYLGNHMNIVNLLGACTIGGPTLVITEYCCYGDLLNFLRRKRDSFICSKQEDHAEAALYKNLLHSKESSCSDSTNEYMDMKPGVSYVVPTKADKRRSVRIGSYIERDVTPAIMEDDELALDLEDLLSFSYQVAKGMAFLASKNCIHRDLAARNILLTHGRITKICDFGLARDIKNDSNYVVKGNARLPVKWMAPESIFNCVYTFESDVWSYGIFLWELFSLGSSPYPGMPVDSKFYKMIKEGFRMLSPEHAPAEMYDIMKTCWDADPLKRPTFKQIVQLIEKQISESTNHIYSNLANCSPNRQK

B-Raf V600E = molecular target: T8, B-Raf V600E (Homo sapiens, UniProt P15056, V600E); assay: AlphaScreen kinase assay, B-Raf V600E; details: read-out: IC50, activity toward kinase B-Raf V600E
T8 construct: P4254. pFastBacBD-CDC37 BRAF D437-K722-X, V600E; His6 with pFastBac HT leader (TEV site) (N); made in house; host or cells: Sf9 (baculovirus; chaperone CDC37 co-expressed)
T8 sequence (P15056 with tags, fused parts or gaps V600E): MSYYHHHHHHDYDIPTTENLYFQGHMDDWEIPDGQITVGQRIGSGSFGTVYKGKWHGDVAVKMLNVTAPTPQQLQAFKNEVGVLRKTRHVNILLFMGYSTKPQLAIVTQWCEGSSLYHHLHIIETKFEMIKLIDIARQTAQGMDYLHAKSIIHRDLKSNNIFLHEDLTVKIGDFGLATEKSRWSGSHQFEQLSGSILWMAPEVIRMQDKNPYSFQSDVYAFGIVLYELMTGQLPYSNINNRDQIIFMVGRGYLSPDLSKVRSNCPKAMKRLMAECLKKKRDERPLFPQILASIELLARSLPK

Flt1 = molecular target: T9, Flt1 (Homo sapiens, UniProt P17948); assay: AlphaScreen kinase assay, Flt1; details: read-out: IC50, activity toward kinase Flt1
T9 construct: P1826.pETN6 BI-PTP FLT1 M799-D1165-X WT; His6 (N); made in house; host or cells: E. coli (PTP1B co-expressed)
T9 sequence (P17948 with tags, fused parts or gaps): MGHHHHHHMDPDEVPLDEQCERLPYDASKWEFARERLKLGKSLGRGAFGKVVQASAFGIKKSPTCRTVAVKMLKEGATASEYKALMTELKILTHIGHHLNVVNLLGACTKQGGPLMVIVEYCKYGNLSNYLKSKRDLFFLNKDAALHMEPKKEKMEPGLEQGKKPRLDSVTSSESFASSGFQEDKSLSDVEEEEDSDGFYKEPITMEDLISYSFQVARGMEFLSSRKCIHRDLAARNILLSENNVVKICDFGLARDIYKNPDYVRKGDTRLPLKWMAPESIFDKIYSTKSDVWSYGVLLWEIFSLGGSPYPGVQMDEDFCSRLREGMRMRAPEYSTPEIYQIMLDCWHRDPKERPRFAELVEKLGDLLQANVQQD

T1 sequence (P07333 20-972): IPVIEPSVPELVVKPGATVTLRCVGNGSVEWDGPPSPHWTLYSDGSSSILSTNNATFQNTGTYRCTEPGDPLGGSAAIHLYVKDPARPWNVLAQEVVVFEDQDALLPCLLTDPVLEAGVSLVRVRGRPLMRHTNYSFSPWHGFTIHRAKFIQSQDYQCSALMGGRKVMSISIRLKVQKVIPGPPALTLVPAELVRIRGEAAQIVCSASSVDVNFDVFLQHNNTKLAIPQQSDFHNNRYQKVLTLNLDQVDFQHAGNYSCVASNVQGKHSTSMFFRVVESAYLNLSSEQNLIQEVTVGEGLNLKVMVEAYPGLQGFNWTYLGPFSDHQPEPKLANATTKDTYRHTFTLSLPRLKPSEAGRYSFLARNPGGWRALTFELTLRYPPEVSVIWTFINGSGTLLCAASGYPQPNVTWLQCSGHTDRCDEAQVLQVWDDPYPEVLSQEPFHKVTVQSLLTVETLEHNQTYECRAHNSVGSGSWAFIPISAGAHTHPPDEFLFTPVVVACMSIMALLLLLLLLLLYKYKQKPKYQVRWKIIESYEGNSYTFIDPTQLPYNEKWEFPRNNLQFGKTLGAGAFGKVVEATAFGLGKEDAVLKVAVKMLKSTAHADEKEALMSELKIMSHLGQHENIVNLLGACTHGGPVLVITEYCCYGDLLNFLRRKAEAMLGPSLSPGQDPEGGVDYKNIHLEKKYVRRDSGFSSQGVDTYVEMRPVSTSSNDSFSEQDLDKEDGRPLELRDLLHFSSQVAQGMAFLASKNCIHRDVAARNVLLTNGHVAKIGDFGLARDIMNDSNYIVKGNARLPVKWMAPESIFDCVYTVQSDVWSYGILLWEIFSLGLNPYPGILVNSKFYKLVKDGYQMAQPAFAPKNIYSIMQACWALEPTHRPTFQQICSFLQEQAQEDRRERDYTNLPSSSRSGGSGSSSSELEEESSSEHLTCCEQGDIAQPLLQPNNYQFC

SMILES	IC50 (Fms) [µM]	IC50 (Jnk1) [µM]	IC50 (FGFR1) [µM]	IC50 (c-Raf-1) [µM]	IC50 (Src) [µM]	IC50 (B-Raf) [µM]	IC50 (Kit) [µM]	IC50 (B-Raf V600E) [µM]	IC50 (Flt1) [µM]
COc1cccc(C(=O)c2c[nH]c3ncc(-c4ccccc4)cc23)c1F [Compound P-1338, (2-Fluoro-3-methoxy-phenyl)-(5-phenyl-1H-pyrrolo[2,3-b]pyridin-3-yl)-methanone]	≤ 10	≤ 10	≤ 10	≤ 10	≤ 10	≤ 10	≤ 10	–	–
CCCCS(=O)(=O)Nc1ccc(F)c(C(=O)c2c[nH]c3ncc(Cl)cc23)c1F [Compound P-1265, Butane-1-sulfonic acid [3-(5-chloro-1H-pyrrolo[2,3-b]pyridine-3-carbonyl)-2,4-difluoro-phenyl]-amide]	≤ 10	–	≤ 10	≤ 10	≤ 10	≤ 10	–	≤ 10	–
CCCS(=O)(=O)Nc1cccc(C(=O)c2c[nH]c3ncc(-c4cccnc4)cc23)c1F [Compound P-1251, Propane-1-sulfonic acid [2-fluoro-3-(5-pyridin-3-yl-1H-pyrrolo[2,3-b]pyridine-3-carbonyl)-phenyl]-amide]	≤ 10	≤ 10	≤ 10	≤ 10	≤ 10	≤ 10	≤ 10	≤ 10	≤ 10
CCCS(=O)(=O)Nc1ccc(F)c(C(=O)c2c[nH]c3ncc(F)cc23)c1F [Compound P-0907, Propane-1-sulfonic acid [2,4-difluoro-3-(5-fluoro-1H-pyrrolo[2,3-b]pyridine-3-carbonyl)-phenyl]-amide]	–	–	≤ 10	≤ 10	≤ 10	≤ 10	≤ 10	≤ 10	–
CCCC(=O)Nc1ccc(F)c(C(O)c2c[nH]c3ncc(-c4cccnc4)cc23)c1F (stereo not drawn) [Compound P-1366]	≤ 10	≤ 10	≤ 10	–	≤ 10	–	≤ 10	≤ 10	≤ 10
CCCS(=O)(=O)Nc1ccc(F)c(C(=O)c2c[nH]c3ncc(OCCN(CC)CC)cc23)c1F [Compound P-1254, Propane-1-sulfonic acid {3-[5-(2-diethylamino-ethoxy)-1H-pyrrolo[2,3-b]pyridine-3-carbonyl]-2,4-difluoro-phenyl}-amide]	–	–	≤ 10	≤ 10	≤ 10	≤ 10	≤ 10	≤ 10	–

The remaining lines, values ahead:

IC50 (Fms) [µM]	IC50 (Jnk1) [µM]	IC50 (FGFR1) [µM]	IC50 (c-Raf-1) [µM]	IC50 (Src) [µM]	IC50 (B-Raf) [µM]	IC50 (Kit) [µM]	IC50 (B-Raf V600E) [µM]	IC50 (Flt1) [µM]	SMILES
≤ 10	≤ 10	≤ 10	≤ 10	≤ 10	≤ 10	≤ 10	≤ 10	–	CCCS(=O)(=O)Nc1ccc(F)c(C(=O)c2c[nH]c3ncc(-c4cccc(N(C)C)c4)cc23)c1F [Compound P-0876, Propane-1-sulfonic acid {3-[5-(3-dimethylamino-phenyl)-1H-pyrrolo[2,3-b]pyridine-3-carbonyl]-2,4-difluoro-phenyl}-amide]
–	–	≤ 10	≤ 10	≤ 10	≤ 10	–	≤ 10	–	CN(C)S(=O)(=O)Nc1ccc(F)c(C(=O)c2c[nH]c3ncc(Cl)cc23)c1F [Compound P-1258, Dimethylamine-1-sulfonic acid [3-(5-chloro-1H-pyrrolo[2,3-b]pyridine-3-carbonyl)-2,4-difluorophenyl]-amide]
–	–	≤ 10	≤ 10	≤ 10	≤ 10	≤ 10	≤ 10	–	CCCS(=O)(=O)Nc1ccc(F)c(C(=O)c2c[nH]c3ncc(-c4ccc(OC)cc4)cc23)c1F [Compound P-0877, Propane-1-sulfonic acid {2,4-difluoro-3-[5-(4-methoxy-phenyl)-1H-pyrrolo[2,3-b]pyridine-3-carbonyl]-phenyl}-amide]
